Measured values published in patent US20230241257A1, “BIOTIN-MODIFIED DIMER AND USE THEREOF” (THE UNIVERSITY OF TOKYO, priority 2020, published 2023).

Legend:
[1] = test system: human stomach cancer cells (MKN-45); assay: Experiment 4: pharmacokinetics of ^211At-psyche-B in the absence of Cupid-scFv antibody in MKN-45 cancer-bearing mouse models; assay type: in vivo, mice (BALB/cSlc nu/nu); details: no Cupid-scFv antibody
Procedure: The present experiment used human stomach cancer cells (MKN-45) expressing carcinoembryonic antigen (CEA). 9-week-old male immunodeficient mice (BALB/cSlc nu/nu) were used. MKN-45 cells (1×10^7/0.1 ml) were transplanted into the mice's subcutis on the right shoulder dorsal side to produce cancer-bearing mouse models. The mice were divided into four groups when the tumor volume became a predetermined size (on Day 14 after the transplantation), and ^211At-psyche-B (about 0.25 MBq/[…]) was administered via the caudal vein of each mouse. One minute, 1 hour, 6 hours, and 24 hours after administration of the ^211At-psyche-B, the mice were euthanized by collecting whole blood from the heart of each mouse under isoflurane anesthesia, and tumor tissues and normal tissues/organs were then excised. Normal tissues/organs: skin (lower right limb), muscle (right gastrocnemius), heart, lung, spleen, pancreas, white fat (upper portion of right side testis), testis (both sides), stomach, stomach contents, small intestine (including contents), large intestine (including contents), liver, brown fat (interscapular), submandibular gland, thyroid gland (together with trachea), bone (right femur), brain, eyeball, bladder, and urine; the remaining residues were divided into three equal parts, and the three equal parts were defined to be residue-1, residue-2, and residue-3. After that, the weights of blood, plasma, urine, tumor, and normal tissues/organs were measured, and the radioactivity thereof was then measured using a γ counter. The amounts of the ^211At-psyche-B (radioactivity) accumulated in the blood, plasma, urine, tumor, and normal tissues/organs were calculated. That is to say, the rates (% ID/g) of the ^211At-psyche-B accumulated per unit weight (g) of the blood, plasma, urine, tumor, and normal tissues/organs, in the administered ^211At-psyche-B, were shown. Regarding accumulation of the ^211At-psyche-B in the thyroid gland, since the weight of the thyroid gland could not be precisely measured, it was shown that the rate (% ID) of the ^211At-psyche-B accumulated in the thyroid gland in the administered ^211At-psyche-B.

[2] = test system: human stomach cancer cells (MKN-45); assay: Experiment 6: pharmacokinetics of Cupid-scFv antibody (48 h before)+^211At-psyche-BR in MKN-45 cancer-bearing mouse models; assay type: in vivo, mice (BALB/cSlc nu/nu)
Procedure: The present experiment used human stomach cancer cells (MKN-45) expressing carcinoembryonic antigen (CEA). 9-week-old male immunodeficient mice (BALB/cSlc nu/nu) were used. MKN-45 cells (1×10^7/0.1 ml) were transplanted into the mice's subcutis on the right shoulder dorsal side to produce cancer-bearing mouse models. The mice were divided into four groups when the tumor volume became a predetermined size (on Day 12 after the transplantation), and the Cupid-scFv antibody was administered 100 μmol/0.1 ml via the caudal vein of each mouse. Forty-eight hours after administration of the Cupid-scFv antibody, […] (about 0.25 MBq/100 ml) was administered via the caudal vein of each mouse. One minute, 1 hour, 6 hours, and 24 hours after administration of the ^211At-psyche-BR, the mice were euthanized by collecting whole blood from the heart of each mouse under isoflurane anesthesia, and tumor tissues and normal tissues/organs were then excised. Normal tissues/organs: skin (lower right limb), muscle (right gastrocnemius muscle), heart, lung, spleen, pancreas, white fat (upper portion of right side testis), testis (both sides), stomach, stomach contents, small intestine (not including contents), large intestine (not including contents), liver, brown fat (interscapular), submandibular gland, thyroid gland (together with trachea), bone (right femur), cerebrum, eyeballs (both sides), bladder, and urine; the remaining residues were divided into three equal parts, and the three equal parts were defined to be residue-1, residue-2, and residue-3. After that, the weights of blood, plasma, urine, tumor, and normal tissues/organs were measured, and the radioactivity thereof was then measured using a γ counter. The amounts of the ^211At-psyche-BR (radioactivity) accumulated in the blood, plasma, urine, tumor, and normal tissues/organs were calculated. That is to say, the rates (% ID/g) of the ^211At-psyche-BR accumulated per unit weight (g) of the blood, plasma, urine, tumor, and normal tissues/organs, in the administered ^211At-psyche-BR were shown. Regarding accumulation of the ^211At-psyche-BR in the thyroid gland, since the weight of the thyroid gland could not be precisely measured, it was shown that the rate (% ID) of the ^211At-psyche-BR accumulated in the thyroid gland in the administered ^211At-psyche-BR.

SMILES: N=C1N[C@H]2[C@H](CS[C@H]2CCCCC(=O)NCCCCCC(=O)Nc2cc(NC(=O)CCCCCNC(=O)CCCC[C@@H]3SC[C@@H]4NC(=N)N[C@@H]43)cc(C(=O)NCCOCCOCCNC(=O)c3cccc([211At])c3)c2)N1 [^211At-psyche-B]
- Accumulation in the blood ([1]; after 1 minute): 10.4±1.1 % ID/g
- Accumulation in the kidney ([1]; after 1 minute): 61.4±6.5 % ID/g
- Accumulation in the liver ([1]; after 1 minute): 49.1±6.2 % ID/g
- Accumulation in the tumor ([1]; after 1 minute): 0.3±0.05 % ID/g
- Accumulation in the blood ([1]; after 1 hour): 3.8±0.3 % ID/g
- Accumulation in the kidney ([1]; after 1 hour): 57.2±3.1 % ID/g
- Accumulation in the liver ([1]; after 1 hour): 35.3±3.3 % ID/g
- Accumulation in the tumor ([1]; after 1 hour): 1.0±0.1 % ID/g
- Accumulation in the blood ([1]; after 6 hours): 0.4±0.1 % ID/g
- Accumulation in the kidney ([1]; after 6 hours): 17.7±1.9 % ID/g
- Accumulation in the liver ([1]; after 6 hours): 16.8±0.7 % ID/g
- Accumulation in the thyroid gland ([1]; after 6 hours): 0.16±0.06 % ID
- Accumulation in the tumor ([1]; after 6 hours): 1.0±0.1 % ID/g
- Accumulation in the blood ([1]; after 24 hours): 0.2±0.04 % ID/g
- Accumulation in the kidney ([1]; after 24 hours): 5.1±0.9%
- Accumulation in the liver ([1]; after 24 hours): 9.0±1.4%
- Accumulation in the tumor ([1]; after 24 hours): 0.3±0.02%

SMILES: N=C1N[C@H]2[C@H](CS[C@H]2CCCCNC(=O)CCCCCC(=O)Nc2cc(NC(=O)CCCCCC(=O)NCCCC[C@@H]3SC[C@@H]4NC(=N)N[C@@H]43)cc(C(=O)NCCOCCOCCNC(=O)c3cccc([211At])c3)c2)N1 [^211At-psyche-BR]
- Accumulation in the blood ([2]; after 1 minute): 26.4±2.7 % ID/g
- Accumulation in the kidney ([2]; after 1 minute): 81.7±11.8 % ID/g
- Accumulation in the liver ([2]; after 1 minute): 31.5±4.3 % ID/g
- Accumulation in the lung ([2]; after 1 minute): 9.5±0.4 % ID/g
- Accumulation in the spleen ([2]; after 1 minute): 3.4±0.2 % ID/g
- Accumulation in the tumor ([2]; after 1 minute): 0.5±0.0 % ID/g
- tumor-to-blood ratio ([2]; after 1 minute): 0.02±0.00
- tumor-to-muscle ratio ([2]; after 1 minute): 1.30±0.06
- Accumulation in the blood ([2]; after 1 hour): 30.6±3.2 % ID/g
- Accumulation in the kidney ([2]; after 1 hour): 54.5±4.0 % ID/g
- Accumulation in the liver ([2]; after 1 hour): 19.8±1.3 % ID/g
- Accumulation in the lung ([2]; after 1 hour): 12.7±0.6 % ID/g
- Accumulation in the spleen ([2]; after 1 hour): 6.8±0.3 % ID/g
- Accumulation in the tumor ([2]; after 1 hour): 3.2±0.5 % ID/g
- tumor-to-blood ratio ([2]; after 1 hour): 0.10±0.01
- tumor-to-muscle ratio ([2]; after 1 hour): 5.13±0.67
- Accumulation in the blood ([2]; after 6 hours): 22.7±2.7 % ID/g
- Accumulation in the kidney ([2]; after 6 hours): 15.0±2.3 % ID/g
- Accumulation in the liver ([2]; after 6 hours): 18.7±2.7 % ID/g
- Accumulation in the lung ([2]; after 6 hours): 7.5±3.3 % ID/g
- Accumulation in the spleen ([2]; after 6 hours): 9.7±1.0 % ID/g
- Accumulation in the tumor ([2]; after 6 hours): 9.3±1.4 % ID/g
- tumor-to-blood ratio ([2]; after 6 hours): 0.42±0.11
- tumor-to-muscle ratio ([2]; after 6 hours): 11.42±1.05
- Accumulation in the thyroid gland ([2]; after 24 h): 0.19±0.03 % ID
- Accumulation in the blood ([2]; after 24 hours): 1.6±1.0 % ID/g
- Accumulation in the kidney ([2]; after 24 hours): 5.6±1.0%
- Accumulation in the liver ([2]; after 24 hours): 8.9±1.7%
- Accumulation in the lung ([2]; after 24 hours): 2.9±0.3%
- Accumulation in the spleen ([2]; after 24 hours): 4.6±1.6%
- Accumulation in the tumor ([2]; after 24 hours): 7.4±2.3%
- administered amount excreted (blood) ([2]; after 24 hours): about 98%
- tumor-to-blood ratio ([2]; after 24 hours): 5.39±1.56
- tumor-to-muscle ratio ([2]; after 24 hours): 27.98±2.34
